Results on 7 compounds are retold here after PMC8815272 (The Journal of Supercritical Fluids, 2022).

Counter-ions that a name gives are not always drawn. Like-named read-outs stand apart in the source and are kept apart here.

Data set [1] in a line: Solubility of favipiravir in supercritical CO2. The format is physicochemical.
Data set [2] is classed as physicochemical. To be noted: binary system favipiravir-SC-CO2, from model.
The conditions of data set [3]: high permeability, low water solubility; cited from earlier work.
The conditions of data set [4]: cited from earlier work.
[5] abbreviates: SC-CO2, 12.2–35.5 MPa, 308–348 K.
The mark [6] stands for this setting: SC-CO2, 14.9–25.5 MPa, 303–323 K.
[7] abbreviates: SC-CO2, 15.5–30.5 MPa, 315–345 K.

`NC(=O)c1nc(F)c[nH]c1=O` [Favipiravir]: the “y2 × 10^4 (Mole Fraction)” value in data set [1] (SC-CO2, 308 K, 12 MPa, density 768.42 kg/m^3) is 0.53 mole fraction × 10^4; in data set [1] (SC-CO2, 308 K, 15 MPa, density 816.06 kg/m^3) it was 0.87 mole fraction × 10^4; in data set [1] (SC-CO2, 308 K, 18 MPa, density 848.87 kg/m^3) it was 1.44 mole fraction × 10^4; in data set [1] (SC-CO2, 308 K, 21 MPa, density 874.40 kg/m^3), 2.31 mole fraction × 10^4; in data set [1] (SC-CO2, 308 K, 24 MPa, density 895.54 kg/m^3) it was 3.42 mole fraction × 10^4; in data set [1] (SC-CO2, 308 K, 27 MPa, density 913.69 kg/m^3), 4.09 mole fraction × 10^4. The “y2 × 10^4 (Mole Fraction)” value in data set [1] (SC-CO2, 308 K, 30 MPa, density 929.68 kg/m^3) is 5.13 mole fraction × 10^4; in data set [1] (SC-CO2, 318 K, 12 MPa, density 659.73 kg/m^3), 0.37 mole fraction × 10^4; in data set [1] (SC-CO2, 318 K, 15 MPa, density 743.17 kg/m^3), 0.80 mole fraction × 10^4; in data set [1] (SC-CO2, 318 K, 18 MPa, density 790.18 kg/m^3), 1.30 mole fraction × 10^4; in data set [1] (SC-CO2, 318 K, 21 MPa, density 823.70 kg/m^3) it was 2.72 mole fraction × 10^4; in data set [1] (SC-CO2, 318 K, 24 MPa, density 850.10 kg/m^3) it was 4.29 mole fraction × 10^4. The “y2 × 10^4 (Mole Fraction)” value in data set [1] (SC-CO2, 318 K, 27 MPa, density 872.04 kg/m^3) worked out at 5.41 mole fraction × 10^4; in data set [1] (SC-CO2, 318 K, 30 MPa, density 890.92 kg/m^3), 6.48 mole fraction × 10^4; in data set [1] (SC-CO2, 328 K, 12 MPa, density 506.85 kg/m^3), 0.08 mole fraction × 10^4; in data set [1] (SC-CO2, 328 K, 15 MPa, density 654.94 kg/m^3) it was 0.60 mole fraction × 10^4; in data set [1] (SC-CO2, 328 K, 18 MPa, density 724.13 kg/m^3), 1.39 mole fraction × 10^4; in data set [1] (SC-CO2, 328 K, 21 MPa, density 768.74 kg/m^3), 3.21 mole fraction × 10^4. For the same compound, the “y2 × 10^4 (Mole Fraction)” value in data set [1] (SC-CO2, 328 K, 24 MPa, density 801.92 kg/m^3) is given as 4.75 mole fraction × 10^4; in data set [1] (SC-CO2, 328 K, 27 MPa, density 828.51 kg/m^3), 6.58 mole fraction × 10^4; in data set [1] (SC-CO2, 328 K, 30 MPa, density 850.83 kg/m^3), 7.65 mole fraction × 10^4; in data set [1] (SC-CO2, 338 K, 12 MPa, density 384.17 kg/m^3), 0.03 mole fraction × 10^4; in data set [1] (SC-CO2, 338 K, 15 MPa, density 555.23 kg/m^3) it was 0.37 mole fraction × 10^4; in data set [1] (SC-CO2, 338 K, 18 MPa, density 651.18 kg/m^3), 1.32 mole fraction × 10^4. In addition, the “y2 × 10^4 (Mole Fraction)” value in data set [1] (SC-CO2, 338 K, 21 MPa, density 709.69 kg/m^3) is recorded as 3.92 mole fraction × 10^4; in data set [1] (SC-CO2, 338 K, 24 MPa, density 751.17 kg/m^3), 5.6 mole fraction × 10^4; in data set [1] (SC-CO2, 338 K, 27 MPa, density 783.29 kg/m^3), 7.57 mole fraction × 10^4; in data set [1] (SC-CO2, 338 K, 30 MPa, density 809.58 kg/m^3), 9.05 mole fraction × 10^4. Besides, the “total heat (ΔHtotal)” value in data set [2] was found to be 16.75 kcal/mol. Moreover, the “vaporization heat (ΔHvap)” value in data set [2] is 21.54 kcal/mol. Moreover, in data set [3], the “class in the Biopharmaceutics Classification System (BCS)” value is reported as “class II”.

In the case of `CC[C@H](C)C(=O)O[C@H]1C[C@@H](C)C=C2C=C[C@H](C)[C@H](CC[C@@H]3C[C@@H](O)CC(=O)O3)[C@H]21` [Lovastatin], in data set [4] (SC-CO2, 12.16–35.46 MPa, 308–348 K), the “Crossover (MPa)” value is 17 MPa.

With `CC[C@H]1OC(=O)[C@H](C)[C@@H](O[C@H]2C[C@@](C)(OC)[C@@H](O)[C@H](C)O2)[C@H](C)[C@@H](O[C@@H]2O[C@H](C)C[C@H](N(C)C)[C@H]2O)[C@](C)(OC)C[C@@H](C)C(=O)[C@H](C)[C@@H](O)[C@]1(C)O` [Clarithromycin], in data set [4] (setting [5]), the “Crossover (MPa)” value was 15–15.2 MPa and the “Mole fraction (y)” value is 1.31 × 10^−4 to 3.28 × 10^−4.

With `CCN(CC)c1ccc2cc(-c3nc4ccccc4[nH]3)c(=O)oc2c1` [Coumarin-7], in data set [4] (SC-CO2, 9–33 MPa, 308–338 K), the “Crossover (MPa)” value is 13–16 MPa and the “Mole fraction (y)” value was 4.15 × 10^−6 to 1.00 × 10^−5.

With `Cc1cnc(NC(=O)C2=C(O)c3ccccc3S(=O)(=O)N2C)s1` [Meloxicam sodium], in data set [4] (setting [6]), the “Crossover (MPa)” value is recorded as 15–17 MPa and the “Mole fraction (y)” value is 4.41 × 10^−6 to 12.76 × 10^−6.

Regarding `CNC(=O)c1cc(Oc2ccc(NC(=O)Nc3ccc(Cl)c(C(F)(F)F)c3)cc2)ccn1` [Sorafenib tosylate], in data set [4] (SC-CO2, 12–27 MPa, 308–338 K), the “Mole fraction (y)” value is recorded as 0.68 × 10^−6 to 12.57 × 10^−6.

`CCC(=O)O[C@]1(C(=O)CCl)[C@@H](C)C[C@H]2[C@@H]3CCC4=CC(=O)C=C[C@]4(C)[C@@]3(F)[C@@H](O)C[C@@]21C` [Clobetasol Propionate]: in data set [4] (setting [7]), the “Crossover (MPa)” value is on record as 24.5 MPa and the “Mole fraction (y)” value is reported as 1 × 10^−6 to 2.1 × 10^−5.
